Target: Stx2A1 (Escherichia phage 933W, UniProt P09385)
Format: biochemical, E. coli (STEC)
Conditions: read-out: IC50 against Stx2A1

Stx2A1, sequence (P09385 23-272 limits assumed): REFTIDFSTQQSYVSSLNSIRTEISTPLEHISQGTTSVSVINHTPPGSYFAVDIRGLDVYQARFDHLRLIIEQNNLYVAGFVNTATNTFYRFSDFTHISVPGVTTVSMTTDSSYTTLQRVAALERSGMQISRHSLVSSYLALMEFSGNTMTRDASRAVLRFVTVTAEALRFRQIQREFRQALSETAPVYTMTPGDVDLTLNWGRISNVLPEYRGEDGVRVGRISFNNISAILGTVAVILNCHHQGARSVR

With `CC1(C)Cc2cc(C(=O)O)sc2-c2ccccc21` [RU-NT-206, 5,5-Dimethyl-4,5-dihydronaphtho[1,2-b]thiophene-2-carboxylic acid] the IC50 was 83 ± 30 µM.

— patent US20260207576A1 (priority 2024, published 2026)
